# Test results from patent US11440923B2, “Substituted macrocyclic indole derivatives” (Bayer Aktiengesellschaft, priority 2017, dated 2022).
# Counter-ions that a name gives are not always drawn. Like-named read-outs stand apart in the source and are kept apart here.
# Columns and labels:
# [1] = target: BCL-XL (Homo sapiens (Human), UniProt Q07817); experiment: Protein-protein interaction assay BCL-XL/Bad BH3 peptide (BCL-XL assay, TR-FRET); format: binding; details: read-out: BCL-XL Assay IC50 (median)
# In short: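 TR-FRET competition: 1 nM His-tagged human BCL-XL (1-212) versus 1 nM biotin-PEG Bad BH3 peptide tracer, buffer 50 mM Tris pH 7, NaCl, KF, DTT. Compound preincubated with protein 10 min at 22 °C; read after 1 h at 22 °C plus overnight at 4 °C. IC50 by 4-parameter regression of normalized ratios.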
# [2] = tested on: SUDHL5 cells; experiment: Induction of cytotoxicity in SUDHL5 cells (Assay 6); format: cell-based
# In short: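 SUDHL5 and SUDHL10 cells plated and held overnight at 37° C, then incubated 5 h at 37° C with compound. Viability measured by CellTiter-Glo luminescence after 15 min shaking at room temperature. Cell-free medium wells served as control.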
# [3] = 5 h, CellTiter-Glo; read-out: Cytotox SUDHL5 IC50 (median)
# [4] = Homo sapiens, SU-DHL-5, 5 h, 5 h, CellTiter-Glo; read-out: Cytotox SUDHL5 IC50 (median)
# BCL-XL, sequence (Q07817 1-212): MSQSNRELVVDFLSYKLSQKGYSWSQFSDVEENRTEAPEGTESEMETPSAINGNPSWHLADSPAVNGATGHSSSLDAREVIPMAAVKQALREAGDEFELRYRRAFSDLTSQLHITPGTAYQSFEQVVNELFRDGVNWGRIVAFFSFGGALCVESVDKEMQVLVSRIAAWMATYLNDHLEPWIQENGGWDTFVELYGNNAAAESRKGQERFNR
Compound,IC50 [1] [µM],"IC50 ([2]; read-out: Cytotox SUDHL5 IC50 (median); 5 h, CellTiter-Glo) [µM]","IC50 [2, 3] [µM]","IC50 [2, 4] [µM]"
"CCc1c2c(nn1C)C(CCC1CCOCC1)OCCCCn1c(C(=O)O)c(CCCOc3cccc4cc(F)ccc34)c3ccc(Cl)c-2c31 (racemic) [Example 60, (rac)-4-chloro-3-ethyl-7-{3-[(6-fluoronaphthalen-1-yl)oxy]propyl}-2-methyl-(15-rac)-[2-(oxan-4-yl)ethyl]-2,10,11,12,13,15-hexahydropyrazolo[4′,3′:9,10][1,6]oxazacycloundecino[8,7,6-hi]indole-8-carboxylic Acid]",15.4,–,0.077,–
"Cc1c2c(nn1C)C(CCN1CCOCC1)OCCCCn1c(C(=O)O)c(CCCOc3cccc4ccccc34)c3ccc(F)c-2c31 (racemic) [Example 7, (rac)-4-fluoro-2,3-dimethyl-15-[2-(morpholin-4-yl)ethyl]-7-[3-(naphthalen-1-yloxy)propyl]-2,10,11,12,13,15-hexahydropyrazolo[4′,3′:9,10][1,6]oxazacycloundecino[8,7,6-hi]indole-8-carboxylic Acid]",> 20,–,–,0.24
"CCc1c2c(nn1C)C(CCN1CCOCC1)OCCCCn1c(C(=O)O)c(CCCOc3cccc4cc(F)ccc34)c3ccc(F)c-2c31 (racemic) [Example 49, (rac)-3-Ethyl-4-fluoro-7-{3-[(6-fluoronaphthalen-1-yl)oxy]propyl}-2-methyl-(15-rac)-[2-(morpholin-4-yl)ethyl]-2,10,11,12,13,15-hexahydropyrazolo[4′,3′:9,10][1,6]oxazacycloundecino[8,7,6-hi]indole-8-carboxylic Acid]",> 20,–,–,0.034
"CCc1c2c(nn1C)C(C(F)(F)F)OCCCCn1c(C(=O)O)c(CCCOc3cccc4ccccc34)c3ccc(Cl)c-2c31 (single isomer, unassigned; enantiomer 1) [Example 33, (+)-4-chloro-3-ethyl-2-methyl-7-{3-[(naphthalen-1-yl)oxy]propyl}-15-(trifluoromethyl)-2,10,11,12,13,15-hexahydropyrazolo[4′,3′:9,10][1,6]oxazacycloundecino[8,7,6-hi]indole-8-carboxylic Acid—N-ethylethanamine Salt (Enantiomer 1)]",> 20,–,1.1,–

# Continued, in another order:
IC50 [1] [µM],Compound,"IC50 ([2]; read-out: Cytotox SUDHL5 IC50 (median); 5 h, CellTiter-Glo) [µM]","IC50 [2, 3] [µM]","IC50 [2, 4] [µM]"
> 20,"Cc1c2c(nn1C)C(C)OCCCCn1c(C(=O)O)c(CCCOc3cccc4ccccc34)c3cccc-2c31 (single isomer, unassigned; stereoisomer 1) [Example 2, 2,3,15-trimethyl-7-[3-(naphthalen-1-yloxy)propyl]-2,10,11,12,13,15-hexahydropyrazolo[4′,3′:9,10][1,6]oxazacycloundecino[8,7,6-hi]indole-8-carboxylic Acid Trifluoroacetic Acid Salt (Stereoisomer 1)]",1.3,–,–
> 20,"Cc1c2c(nn1C)C(CCN1CCOCC1)OCCCCn1c(C(=O)O)c(CCCOc3cccc4ccccc34)c3ccc(F)c-2c31 (single isomer, unassigned; enantiomer 2) [Example 9, 4-fluoro-2,3-dimethyl-15-[2-(morpholin-4-yl)ethyl]-7-{3-[(naphthalen-1-yl)oxy]propyl}-2,10,11,12,13,15-hexahydropyrazolo[4′,3′:9,10][1,6]oxazacycloundecino[8,7,6-hi]indole-8-carboxylic Acid—N-ethylethanamine Salt (Enantiomer 2)]",–,5.4,–
> 20,"Cc1c2c(nn1C)C(CCO)OCCCCn1c(C(=O)O)c(CCCOc3cccc4ccccc34)c3ccc(Cl)c-2c31 (single isomer, unassigned; enantiomer 2) [Example 32, (−)-4-chloro-15-(2-hydroxyethyl)-2,3-dimethyl-7-{3-[(naphthalen-1-yl)oxy]propyl}-2,10,11,12,13,15-hexahydropyrazolo[4′,3′:9,10][1,6]oxazacycloundecino[8,7,6-hi]indole-8-carboxylic Acid (Enantiomer 2)]",–,> 33,–
